In PubChem BioAssay (NCI):
Several values for one entry are separate records, joined by “and”; a condition that tells them apart may be missing. Identical values can stand only once.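 Briefly, cells in 96-well plates were exposed to five compound concentrations for 48 h, and endpoints were estimated by linear interpolation. At the GI50, growth is halved. Definition used: TGI = concentration required for complete inhibition of growth.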

How the values were obtained:
Assay in all cases: NCI tumour cell line growth inhibition, 48 h
MDA-N = tested on: MDA-N
KM20L2 colon = tested on: KM20L2 colon
M19-MEL melanoma = tested on: M19-MEL melanoma
DMS 114 small cell lung = tested on: DMS 114 small cell lung
DLD-1 colon = tested on: DLD-1 colon
LXFL 529 NSCLC = tested on: LXFL 529 NSCLC
RXF-631 renal = tested on: RXF-631 renal
HOP-18 NSCLC = tested on: HOP-18 NSCLC
P388 leukemia = tested on: P388 leukemia
SN12K1 renal = tested on: SN12K1 renal
P388/ADR leukemia = tested on: P388/ADR leukemia

| Structure (SMILES) | TGI (MDA-N) | TGI (KM20L2 colon) | TGI (M19-MEL melanoma) | TGI (DMS 114 small cell lung) | TGI (DLD-1 colon) | TGI (LXFL 529 NSCLC) | other results |
| --- | --- | --- | --- | --- | --- | --- | --- |
| CN(C)Cc1ccc(C(C)(C)C)cc1-c1cc(C(C)(C)C)ccc1CN(C)C | > 100 µM |  |  |  |  |  |  |
| COC1[C@H](NC(=O)OC(C)(C)C)C(=O)N1Cc1ccccc1 (stereo partly drawn) |  | > 100 µM | > 100 µM | > 100 µM | > 100 µM | > 100 µM |  |
| Cc1cc(=O)n(-c2c(C)cccc2Cl)c(/C=C(\O)c2ccncc2)n1 |  | > 100 µM |  | > 100 µM | > 100 µM | > 100 µM | TGI (RXF-631 renal): > 100 µM; TGI (HOP-18 NSCLC): > 100 µM |
| C[C@H](CS)C(=O)N1c2ccccc2C[C@H]1C(=O)O | > 100 µM |  |  |  |  |  |  |
| CC(=O)OC(C)(C)/C=C/C(=O)[C@](C)(O)[C@H]1[C@H](O)C[C@@]2(C)[C@@H]3CC=C4[C@@H](C=C(O)C(=O)C4(C)C)[C@]3(C)C(=O)C[C@]12C | 1.57 µM |  | 4.2 µM and 3.01 µM and 3.43 µM |  | 4.25 µM and 4.43 µM and 2.19 µM | 0.305 µM and 0.385 µM | GI50 (P388 leukemia): 0.0895 µM; TGI (P388 leukemia): 2.32 µM and 14.3 µM; GI50 (RXF-631 renal): 0.018 µM; TGI (RXF-631 renal): 0.434 µM and 0.152 µM; GI50 (SN12K1 renal): 0.0155 µM; TGI (SN12K1 renal): 0.287 µM and 0.0604 µM; GI50 (LXFL 529 NSCLC): 0.018 µM; GI50 (P388/ADR leukemia): 0.175 µM; TGI (P388/ADR leukemia): 3.04 µM and 2 µM |
| CN(C)C(=O)NC(=S)N(C)C |  | > 100 µM | > 100 µM | > 100 µM | > 100 µM | > 100 µM | TGI (HOP-18 NSCLC): > 100 µM |
| O=C(COc1ccc(OCC(=O)N2C(=O)CN(c3ccccc3)C2=S)cc1)N1C(=O)CN(c2ccccc2)C1=S | > 100 µM |  |  |  |  |  | GI50 (MDA-N): > 25 µM |
| CCCCCCCCCCSC(=O)NC |  |  | > 100 µM |  | > 100 µM | > 100 µM | TGI (HOP-18 NSCLC): > 100 µM |
| CCN(CC)c1ccc(C2NC(=O)c3ccccc3N2)cc1 (stereo not drawn) | 2.55 µM |  |  |  |  |  |  |
| O=C1C=CC(=Nc2cccc3c(N=C4C=CC(=O)O4)cccc23)O1 | 69.1 µM |  |  |  |  |  |  |
| Clc1ccc(OCc2nnc3n2N=C(c2ccc(Br)cc2)CS3)cc1 |  |  | > 100 µM | 54 µM |  | 70.3 µM |  |
| C(=Nc1cnc2ccccc2c1)c1ccc2ccccc2n1 | > 100 µM |  |  |  |  |  |  |
| O=C(N/C(=C\c1ccccc1Cl)c1nc2ccccc2[nH]1)c1ccccc1 |  | > 100 µM | > 100 µM | > 100 µM | > 100 µM | > 100 µM | TGI (RXF-631 renal): > 100 µM |
| CN(C)CCn1cnc2ncccc2c1=O |  | > 100 µM | > 100 µM | > 100 µM | > 100 µM | > 100 µM |  |
| CCOC(=O)C(NO)C(Sc1ccccc1)c1ccc(OC)cc1 (stereo not drawn) |  | > 100 µM | > 100 µM | > 100 µM | > 100 µM | > 100 µM | TGI (HOP-18 NSCLC): > 100 µM |
| COC(=O)C1C(=O)O[C@@H](c2ccc(OC)c(OC)c2OC)C1C(=O)OC (mixture of isomers) |  | > 100 µM | > 100 µM | > 100 µM | > 100 µM | > 100 µM | TGI (RXF-631 renal): > 100 µM |
| COc1cccc(/C=C/c2ccnc3ccccc23)c1OC | > 10 µM |  |  |  |  |  |  |
